The target in series [1] is T1, Angiotensin-converting enzyme 2 (Homo sapiens, UniProt Q9BYF1). As to the kind of experiment: Inhibition of human ACE2 using Mca-APK(Dnp) as substrate incubated for 30 mins by fluorometer analysis.
Target sequence in this assay (Q9BYF1 whole entry): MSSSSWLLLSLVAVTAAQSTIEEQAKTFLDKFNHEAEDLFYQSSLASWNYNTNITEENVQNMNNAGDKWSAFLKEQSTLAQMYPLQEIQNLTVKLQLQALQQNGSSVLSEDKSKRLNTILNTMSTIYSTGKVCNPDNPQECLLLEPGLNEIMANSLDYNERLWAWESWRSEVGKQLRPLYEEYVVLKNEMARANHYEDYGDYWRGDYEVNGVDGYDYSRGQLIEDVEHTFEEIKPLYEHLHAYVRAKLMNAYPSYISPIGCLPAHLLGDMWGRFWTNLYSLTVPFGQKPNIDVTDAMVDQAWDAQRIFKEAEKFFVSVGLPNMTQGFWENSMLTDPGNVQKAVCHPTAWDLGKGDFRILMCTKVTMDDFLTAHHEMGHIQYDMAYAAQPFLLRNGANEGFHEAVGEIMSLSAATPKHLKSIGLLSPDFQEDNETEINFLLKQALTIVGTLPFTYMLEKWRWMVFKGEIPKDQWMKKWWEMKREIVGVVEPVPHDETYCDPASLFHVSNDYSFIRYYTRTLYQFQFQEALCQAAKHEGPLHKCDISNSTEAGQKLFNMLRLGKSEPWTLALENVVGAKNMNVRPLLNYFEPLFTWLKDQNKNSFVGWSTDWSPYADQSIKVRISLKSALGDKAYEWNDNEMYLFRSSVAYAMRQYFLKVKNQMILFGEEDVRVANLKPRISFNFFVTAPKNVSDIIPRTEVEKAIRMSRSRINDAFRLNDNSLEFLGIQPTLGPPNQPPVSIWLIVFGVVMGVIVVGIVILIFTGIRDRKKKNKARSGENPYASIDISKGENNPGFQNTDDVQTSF
Series [2] deals with T1, Angiotensin-converting enzyme 2. Nature of the series: Inhibition of human ACE2 using Mca-APK(Dnp) as substrate at 10 nM incubated for 30 mins by fluorometer analysis.
Target sequence in this assay (Q9BYF1 18-805 limits assumed): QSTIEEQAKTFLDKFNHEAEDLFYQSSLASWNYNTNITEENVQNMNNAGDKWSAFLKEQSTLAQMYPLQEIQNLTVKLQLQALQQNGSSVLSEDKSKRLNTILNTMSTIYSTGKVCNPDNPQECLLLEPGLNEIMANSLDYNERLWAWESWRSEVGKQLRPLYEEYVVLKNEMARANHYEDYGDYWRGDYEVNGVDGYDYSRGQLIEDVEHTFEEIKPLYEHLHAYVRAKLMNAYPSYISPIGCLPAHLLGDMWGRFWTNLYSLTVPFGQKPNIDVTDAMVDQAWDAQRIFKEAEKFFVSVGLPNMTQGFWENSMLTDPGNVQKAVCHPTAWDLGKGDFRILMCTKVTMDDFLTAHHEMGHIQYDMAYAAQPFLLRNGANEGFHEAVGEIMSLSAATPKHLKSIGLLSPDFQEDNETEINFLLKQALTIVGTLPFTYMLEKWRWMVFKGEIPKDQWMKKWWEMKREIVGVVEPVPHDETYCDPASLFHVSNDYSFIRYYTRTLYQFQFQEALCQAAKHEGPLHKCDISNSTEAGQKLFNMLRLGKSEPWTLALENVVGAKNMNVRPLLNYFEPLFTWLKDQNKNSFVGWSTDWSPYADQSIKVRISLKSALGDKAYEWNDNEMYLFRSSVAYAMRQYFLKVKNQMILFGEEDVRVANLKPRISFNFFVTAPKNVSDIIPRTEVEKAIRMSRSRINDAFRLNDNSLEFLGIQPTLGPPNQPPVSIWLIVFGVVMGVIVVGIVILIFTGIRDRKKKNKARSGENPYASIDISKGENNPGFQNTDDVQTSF
For the next series, the system named is SARS-CoV-2. As to the kind of experiment: Antiviral activity against SARS-CoV-2 Wuhan infected in african green monkey Vero cells pre-infected for 1 hr followed by compound addition and measured after 48 hrs by RT-qPCR analysis. The settings on record: Severe acute respiratory syndrome coronavirus 2, Wuhan. The series is classed as functional, organism-based. In general terms: In qPCR the cycle at which signal appears reflects the starting amount.

The nature of series [3]: Cytotoxicity against African green monkey Vero cells assessed as reduction in cell viability upto 100 uM incubated for 48 hrs by Alamar blue assay. The following applies: chlorocebus sabaeus. The series is classed as toxicity, cell-based. Background: The colour change of resazurin is a common sign of viable cells or microbes.

Molecules are shown by their SMILES. Activity calls are given as the source filed them. The rule behind the calls is not given here.

What is called IC50 is the concentration at which inhibition is half-maximal. In series [1], `C=C(C)[C@@H]1CCC(C)=C[C@H]1c1c(OCC(=O)OCC)cc(CCCCC)cc1OCC(=O)OCC` had an IC50 of 370 nM.

In series [1], `CCCCCc1cc(O)c(C2C=C(C)CC(C)(C)C2)c(O)c1` (stereo unspecified) displayed an IC50 of 3960 nM.

In series [1], `CC(=O)NCC(=O)N[C@@H](CC(=O)O)C(=O)N[C@@H](Cc1ccc(O)cc1)C(=O)N[C@@H](CO)C(=O)N[C@@H](Cc1cnc[nH]1)C(=O)N[C@H]1CSSC[C@@H](C(=O)N[C@H](C(=O)N[C@@H](Cc2ccc(O)cc2)C(=O)N2CCC[C@H]2C(=O)N[C@@H](CC(=O)O)C(=O)N2CCC[C@H]2C(=O)N[C@@H](CCC(=O)O)C(=O)NCC(=O)NCC(=O)NCC(N)=O)[C@@H](C)O)NC(=O)[C@H](CCCCN)NC(=O)[C@H](Cc2c[nH]c3ccccc23)NC(=O)[C@H](Cc2c[nH]c3ccccc23)NC(=O)[C@@H]2CCCN2C(=O)[C@H](Cc2ccc(O)cc2)NC(=O)[C@H](Cc2ccc(O)cc2)NC(=O)[C@H](CCCNC(=N)N)NC(=O)[C@H](CC(C)C)NC(=O)[C@@H]2CCCN2C(=O)[C@H](CO)NC1=O` showed an IC50 of 8300 nM.

The molecule `C=C(C)[C@@H]1CCC(C)=C[C@H]1c1c(OCCCC)cc(CCCCC)cc1OCCCC` gave an IC50 in series [1] of 170 nM. `CCCCCc1cc(O)cc2c1C1CC(C)(C)CC(C)(C1)O2` (stereo unspecified) registered an IC50 in series [1] of 10 nM. The inhibition result in series [2] was “Active”. In the case of `C=C(C)[C@@H]1CCC(C)=C[C@H]1c1c(O)cc(CCCCC)cc1O` [CANNABIDIOL], the IC50 was > 30000 nM in series [1] and 72800 nM with SARS-CoV-2. Also, the Activity result in series [3] is recorded as “Non-Toxic”.

For the molecule `C=C(C)[C@@H]1CCC(C)=C[C@H]1c1c(OCC)cc(CCCCC)cc1OCC`, the IC50 was determined as 180 nM in series [1] and 9400 nM with SARS-CoV-2. Further, in series [3], the Activity entry is “Non-Toxic”. In the same order, the values of `CCCCCc1cc(O)c([C@@H]2C=C(C)CC[C@H]2C(C)C)c(O)c1` are 1370 nM, 1900 nM and “Non-Toxic”.

With `C=C(C)[C@@H]1CC=C(C)C(c2c(O)cc(CCCCC)cc2O)C1` (stereo partly specified), the IC50 in the series on SARS-CoV-2 is 6300 nM. Further, the Activity result in series [3] is recorded as “Non-Toxic”. With `CCCCCc1cc(O)c([C@@H]2C=C(C)CC[C@H]2[C@@H](C)CCN2CCC(C)CC2)c(O)c1`, the IC50 in series [1] was > 30000 nM; with SARS-CoV-2 it was 6500 nM. The Activity entry in series [3] is listed as “Non-Toxic”. In series [1], `CCCCCc1cc(OC(C)=O)c([C@@H]2C=C(C)CC[C@H]2[C@@H](C)CC=O)c(OC(C)=O)c1` registered an IC50 of 40 nM.

Source of the values: ChEMBL document CHEMBL5625244, “Synthesis of cannabidiol-based compounds as ACE2 inhibitors with potential application in the treatment of COVID-19” (Eur J Med Chem, 2023).
